Assay results from patent US9393288B2, “Methods of treating diseases associated with PPARγ” (The University of Vermont and State Agricultural College, priority 2012, dated 2016).

Tests used:
[1] = tested on: parenchymal arterioles (PA); assay: SKCa/IKCa channel blockers added to isolated pressurized PA; parameters: species or system rat; details: apamin 3×10^−7 M, TRAM-34 10^−6 M in the bath
Experimental: (§1) Vascular Reactivity and Structural Characteristics in PA and MCA: For the first set of experiments, PA and MCA were equilibrated for 1 hour at 25 mmHg, after which myogenic activity was determined by stepwise increases in pressure from 40 to 100 mmHg for PA or 50 to 175 mmHg for MCA. ID and WT were measured at each pressure once stable. Changes in ID and WT were measured in PA only in response to small- (SKCa) and intermediate- (IKCa) conductance calcium-activated potassium channels blockers, apamin (3×10^−7 M) and TRAM-34 (10^−6 M), respectively. PA are unique in that the contribution of endothelium-derived hyperpolarizing factors (EDHF) to tone is greater than most vessels Cipolla et al. (2009) Stroke 40, 1451-1457. Thus, inhibition of SKCa/IKCa channels, a critical component in the EDHF pathway, causes constriction in PA Cipolla et al. (2009) Stroke 40, 1451-1457. We therefore assessed the effect of relaxin on constriction of PA in response to SKCa/IKCa channel inhibition in order to assess this unique pathway. To obtain structural measurements, ID and WT were recorded at pressures between 5 to 200 mmHg for PA or 5 to 175 mmHg for MCA after papaverine (10^−4 M) and diltiazem (10^−5 M) were added to the bath. For the second set of experiments in which animals were treated with relaxin+GW9662, passive structural measurements were made as described above.

[2] = tested on: parenchymal arterioles (PA); assay: Pressurized arteriograph: vascular reactivity and structure of PA from female SHR; format: in vivo, rat; details: SHR-F-Rln-Axi vs SHR-F-Rln
Experimental: A separate group of SHR-F was used to determine if relaxin crosses the BBB by treating with relaxin (4 μg/hr) for 14 days and measuring relaxin concentration in cerebrospinal fluid (CSF) and serum (SHR-F-Rln-CSF, n=4). For the osmotic pump implant, animals were anesthetized with 3% isoflurane and minipumps implanted subcutaneously in the back of the neck. All animals received post-surgical analgesia (buprenorphine, 50 μg/kg, s.c.). Relaxin infusion was continuous for 14 days until animals were euthanized for isolated vessel experiments and tissue collection.
After collecting trunk blood, the brain was quickly removed and placed in cold physiological salt solution (PSS). PA between the M1 and M2 region of the MCA territory and the MCA from the same animals were carefully isolated from WKY-F, SHR-F, and SHR-F-Rln groups and mounted on glass cannulas. PA were identified as branches off the MCA that penetrated into the brain tissue, as previously described (han, S. L., and Cipolla, M. J. (2011) Relaxin causes selective outward remodeling of brain parenchymal arterioles via activation of peroxisome proliferator-activated receptor-gamma. FASEB J 25, 3229-3239). […] The proximal cannula was connected to an in-line pressure transducer and a servo-null pressure control system (Living Systems Instrumentation, Burlington, Vt., USA) that allowed intravascular pressure to be maintained at a set pressure or changed at a variable rate. The distal cannula was closed during the experiment to avoid flow-mediated responses. Temperature and pH were continuously measured and maintained at 37.0±0.5° C. and 7.40±0.05, respectively. Measurements of inner diameter (ID) and wall thickness (WT) were made via video microscopy (Living Systems Instrumentation, Burlington, Vt.).
PA and MCA were equilibrated for 1 hour, after which myogenic activity was determined by stepwise increases in pressure from 40 to 100 mmHg for PA or 50 to 175 mmHg for MCA. ID and WT were measured at each pressure once stable. Endothelium-dependent dilation was studied by adding NS309 (10^−8-10^−5 M), an activator of small- and intermediate-conductance calcium-activated potassium channels (SKCa, IKCa). NS309 was washed out of the bath and a single concentration of the nitric oxide synthase (NOS) inhibitor L-nitro-n-arginine (L-NNA, 10^−4 M) added to the bath. Constriction to NOS inhibition was used as an additional indicator of endothelial function. In the presence of L-NNA, sodium nitroprusside (SNP, 10^−8-10^−5 M) was added to the bath to assess endothelium-independent vasodilation. To obtain structural measurements, ID and WT were recorded at pressures between 5 to 200 mmHg for PA or 5 to 175 mmHg for MCA in zero-calcium PSS containing ethylene glycol tetra-acetic acid (EGTA) and outer diameter (OD) and distensibility calculated.
Percent tone was calculated as percent decrease in ID from the passive diameter at each intravascular pressure: [1−(IDactive/IDpassive)]×100. Percent reactivity for vasodilators was calculated as ((IDdose−IDstart)/(IDpassive−IDstart))×100. Percent constriction for vasoconstrictor was calculated as (1−(IDdose/IDstart))×100. OD was calculated from measured ID and WT: ID+2WT. Distensibility at a given pressure was calculated as (IDpassive−IDoriginal)/(IDoriginal)×100, where IDoriginal is defined as passive inner diameter determined at lowest pressure (5 mmHg). Data from qPCR study were analyzed using the −2^ΔΔCT method, as described previously (Livak, K. J., and Schmittgen, T. D. (2001) Analysis of relative gene expression data using real-time quantitative PCR and the 2(−Delta Delta C(T)) Method. Methods 25, 402-408). Data were removed when the Ct values of technical replicates differed by more than 0.5.

[3] = tested on: parenchymal arterioles (PA); assay: Pressurized arteriograph: vascular reactivity and structure of PA from relaxin-treated NP Sprague Dawley rats; format: in vivo, rat; details: GW9662 10 mg/kg daily in food during relaxin infusion, 5 mmHg
From the text: (§2) Animals and Treatment Groups: All procedures were approved by the Institutional Animal Care and Use Committee and conducted in accordance with the National Institutes of Health Guide for the Care and Use of Laboratory Animals. Female virgin NP Sprague Dawley rats (250-300 g, 14-16 weeks, Charles River, Canada) were used for all experiments and housed in the University of Vermont Animal Care Facility. Animals were randomly selected and grouped as untreated (N=4), treated with recombinant human relaxin-2 (relaxin, 4 μg/hr; N=14), relaxin plus a specific PPARγ inhibitor GW9662 (10 mg/kg daily in food; N=8), or vehicle (20 mM sodium acetate; N=14) for 10 days through osmotic minipumps (Alzet 2ML2, Durect Corp., Cupertino, Calif., USA). GW9662 treatment was started 1 day before and for the duration of relaxin treatment to ensure PPARγ was inhibited. Animals were anesthetized with 3% isoflurane and minipumps implanted subcutaneously in the back of the neck. All animals received post-surgical analgesic (buprenorphine, 50 μg/kg, s.c.). Relaxin infusion was continuous for 10 days until animals were euthanized for vessel experiments and tissue collection. The minipumps used were capable of delivering relaxin for 14 days and thus tissue collection was within this duration.
Vessel Preparation and Pressurized Arteriograph System: After collecting trunk blood, the brain was quickly removed and placed in cold physiological salt solution (PSS). In the first set of experiments, PA between the M1 and M2 region of the MCA territory and the MCA from the same animals were carefully isolated from vehicle- or relaxin-treated animals and mounted on glass cannulas in a dual-chambered arteriograph such that one PA and one MCA from each animal were studied simultaneously. PA were identified as branches off the MCA that penetrated into the brain tissue, as previously described (25). In the second set of experiments, PA from the same brain region as above were dissected from relaxin+GW9662-treated animal and compared to PA from vehicle- and relaxin-treated animals. MCA were not studied in this second set of animals because there was no effect of relaxin on that segment of the vasculature. The proximal cannulas were connected to an in-line pressure transducer and a servo-null pressure control system (Living Systems Instrumentation, Burlington, Vt., USA) that allowed intravascular pressure to be maintained at a set pressure or changed at a variable rate. The distal cannulas were closed during the experiment to avoid flow-mediated responses. Temperature and pH were continuously measured and maintained at 37.0±0.5° C. and 7.40±0.05, respectively. Measurements of inner diameter (ID) and wall thickness (WT) were made via video microscopy (Living Systems Instrumentation).
as §1, with “To obtain structural measurements, ID and WT were recorded at pressures between 5 to 200 mmHg for PA or 5 to 175 mmHg for MCA after papaverine (10^−4 M) and diltiazem (10^−5 M) were added to the bath. For the second set of experiments in which animals were treated with relaxin+GW9662, passive structural measurements were made as described above.” left out

PPARγ target genes = assay: PPARγ target gene expression (real-time qPCR) in adipose tissue, pial arteries and PA, NP Sprague Dawley rats; format: in vivo, rat; details: GW9662 co-treatment
From the text: as §2
Determination of RXFP1 and PPARγ Target Gene Expression: MCA and PA from 4 untreated rats were collected to determine expression level of RXFP1, the primary relaxin receptor, using real-time qPCR methods. We also collected adipose tissue, pial arteries, and PA from vehicle, relaxin and relaxin+GW9662 groups (n=6 for each group) for determination of PPARγ target gene expression. All collected samples were stored in RNase inhibitor (1 unit/μl, RiboLock, Fermentas, Glen Burnie, Md., USA) at −80° C. for comparing expression of fatty acid translocase (FAT)/CD36 and liver X receptors-α (LXRα) for adipose tissue, and plasminogen activator inhibitor-1 (PAI-1) for vasculature. Standard techniques for real-time qPCR were performed by the Vermont Cancer Center DNA analysis facility at the University of Vermont, as described previously Cipolla et al. (2009) Stroke 40, 1451-1457. Briefly, RNA was extracted from tissues and concentration and integrity was determined by a NanoDrop ND-1000 Spectrophotometer (Wilmington, Del.) and an Agilent 2100 Bioanalyzer (Santa Clara, Calif., USA), respectively. Samples with low RNA quality were excluded. cDNA was then made by a SuperScript III Kit (Invitrogen, Carlsbad, Calif., USA). Real-time qPCR was set up as follows: 10 μL Universal PCR Master Mix (Applied Biosystems, Foster City, Calif., USA), 1 μL Assay on Demand (Applied Biosystems), 8 μL water, and 1 μL cDNA. β2-microglobulin (B2M, housekeeping control) and target genes were assessed using Assays on Demand from Applied Biosystems. […] Primers were designed across an exon-exon junction to avoid detecting genomic DNA. Thus, no DNase treatment of samples was necessary. All samples were run in duplicates using a 7900HT Sequence Detection System (Applied Biosystems). […]
Data Calculations and Statistical Analysis: Percent tone was calculated as percent decrease in ID from the passive diameter at each intravascular pressure: [1−(IDactive/IDpassive)]×100%. Outer diameter (OD) was calculated from measured ID and WT: ID+2WT. Cross-sectional area (CSA) of the wall was calculated as: [(OD/2)2−(ID/2)2]×π. Data from qPCR study were analyzed using the −2^ΔΔCT method, as described previously Livak et al. (2001) Methods 25, 402-408. […]

Clc1ccccc1C(c1ccccc1)(c1ccccc1)n1cccn1 [TRAM-34]
Vasoconstriction of PA [1]: greater vasoconstriction

CNC(=O)c1ccccc1Sc1ccc2c(/C=C/c3ccccn3)n[nH]c2c1 [axitinib, reference compound]
Relaxin-induced increased distensibility of PA [2]: no effect

O=C(Nc1ccccc1)c1cc([N+](=O)[O-])ccc1Cl [GW9662, reference compound]
Structural changes of PA induced by relaxin [3]: prevented | Relaxin-induced change of CD36 gene expression in adipose tissue (PPARγ target genes): normalized
